Assay results published in article PMC9820478, “The Active Site of the Enzyme 10-Formyl-THFDH in the Honey Bee Apis mellifera—A Key Player in Formic Acid Detoxification” (International Journal of Molecular Sciences, 2022).

Assays:
Assay in all cases: NADPH formation at […] nm, plate reader, Michaelis-Menten nonlinear fit
Type in all cases: biochemical
Conditions in all cases: 200 µM NADP+, 100 mM beta-mercaptoethanol, Tris/HCl pH 7.6, 30 °C; WT values said to accord with the authors' earlier paper [22]
[1] = target: T1, 10-formyl-THFDH (Amel_10-formyl-THFDH) (Apis mellifera, UniProt A0A7M7GVR6)
T1 construct: gene LOC551401; full-length ORF, N-terminal 6xHis tag (MHHHHHHAQLKVA...) not reported cleaved, baculovirus expression in Hi5 insect cells, Ni-NTA purified
T1 sequence (A0A7M7GVR6 entry or part of it): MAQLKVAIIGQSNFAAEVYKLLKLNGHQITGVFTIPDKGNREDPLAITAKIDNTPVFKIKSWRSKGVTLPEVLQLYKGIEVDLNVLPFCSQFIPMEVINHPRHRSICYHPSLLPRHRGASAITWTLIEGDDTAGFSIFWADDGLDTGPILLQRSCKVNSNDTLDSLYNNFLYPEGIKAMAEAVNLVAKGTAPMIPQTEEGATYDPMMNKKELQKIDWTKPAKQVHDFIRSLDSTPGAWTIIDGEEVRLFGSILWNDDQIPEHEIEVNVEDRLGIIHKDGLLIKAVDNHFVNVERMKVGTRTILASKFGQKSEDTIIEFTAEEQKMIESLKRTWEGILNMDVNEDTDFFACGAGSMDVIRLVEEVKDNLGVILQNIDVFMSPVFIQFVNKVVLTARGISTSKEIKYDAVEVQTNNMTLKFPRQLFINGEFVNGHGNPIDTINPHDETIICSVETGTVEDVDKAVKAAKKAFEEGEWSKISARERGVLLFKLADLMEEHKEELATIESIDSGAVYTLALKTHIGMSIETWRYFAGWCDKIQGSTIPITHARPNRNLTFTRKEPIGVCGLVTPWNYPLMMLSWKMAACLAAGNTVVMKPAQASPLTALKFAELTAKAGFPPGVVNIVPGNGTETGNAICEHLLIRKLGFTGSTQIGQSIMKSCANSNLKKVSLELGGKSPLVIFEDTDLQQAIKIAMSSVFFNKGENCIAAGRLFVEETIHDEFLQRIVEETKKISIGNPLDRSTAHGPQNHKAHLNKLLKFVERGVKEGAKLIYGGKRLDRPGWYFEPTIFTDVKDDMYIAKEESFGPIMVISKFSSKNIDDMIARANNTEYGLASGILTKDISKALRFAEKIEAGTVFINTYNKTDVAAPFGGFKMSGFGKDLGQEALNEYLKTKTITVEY

[2] = target: T1, 10-formyl-THFDH (Amel_10-formyl-THFDH); remark: listed apart in the source
[3] = target: T1, 10-formyl-THFDH (Amel_10-formyl-THFDH); remark: listed apart in the source
[4] = target: T1, 10-formyl-THFDH (Amel_10-formyl-THFDH); remark: listed apart in the source

- Km [2]: 9.6 µM
Structure (SMILES): Nc1nc2c(c(=O)[nH]1)NC(CN(C=O)c1ccc(C(=O)N[C@@H](CCC(=O)O)C(=O)O)cc1)CN2 (stereo partly shown) [10-formyl-THF]
- NADPH formation at 340 nm, plate reader, Michaelis-Menten nonlinear fit [1]: The mutations lost their activity almost entirely
- NADPH formation at 340 nm, plate reader, Michaelis-Menten nonlinear fit [3]: The mutations lost their activity almost entirely
- NADPH formation at 340 nm, plate reader, Michaelis-Menten nonlinear fit [4]: The mutations lost their activity almost entirely
